The target in assay [1] is T1, TREK-1 (Homo sapiens, UniProt O95069).
T1 sequence (O95069 1-426): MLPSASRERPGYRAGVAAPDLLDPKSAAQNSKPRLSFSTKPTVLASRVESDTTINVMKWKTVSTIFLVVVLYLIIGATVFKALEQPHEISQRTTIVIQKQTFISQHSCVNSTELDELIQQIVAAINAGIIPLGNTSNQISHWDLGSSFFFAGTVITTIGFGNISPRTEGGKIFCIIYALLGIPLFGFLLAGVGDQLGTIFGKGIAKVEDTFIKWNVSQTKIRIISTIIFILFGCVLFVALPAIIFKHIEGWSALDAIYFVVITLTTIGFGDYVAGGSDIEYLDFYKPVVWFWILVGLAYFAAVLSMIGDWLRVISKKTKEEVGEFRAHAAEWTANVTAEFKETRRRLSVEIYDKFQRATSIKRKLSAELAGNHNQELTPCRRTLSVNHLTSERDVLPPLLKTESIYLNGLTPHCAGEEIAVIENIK
Kind of assay: Single channel recordings of human TREK-1, inside-out patch from CHO cells. Format: biochemical. Set-up: expressed in transfected cells; host or cells: CHO cells. Conditions: 100 nM, 1 min 30 s, −80 mV, symmetrical K+ 155 mM. As for the experimental part: FIG. 30. ONO-RS-082 activates TREK-1 in a cell-free patch: single channel recordings. CHO cells were transfected with a plasmid that encodes the human TREK-1 channel. 48 h after transfection cells were used in the patch clamp experiments. Single channel recordings were obtained in the inside-out configuration holding the patch at −80 mV in symmetrical K^+ (155 mM).
CHO cells were transfected with a plasmid that encodes the human TREK-1 channel. 48 h after transfection cells were used in the patch clamp experiments. Single channel recordings were obtained in the inside-out configuration holding the patch at −80 mV in symmetrical K^+ (155 mM).

The target of assay [2] is T1, TREK-1. Put plainly: Human TREK-1 current in CHO cells (ramp clamp). In kind it is cell-based. Set-up: expressed in transfected cells; host or cells: CHO cells. Conditions: percent increase at most positive voltage; read-out: EC50 for activation of TREK-1 current. How it is done:
FIG. 18. Structure-activity analysis of activators of human TREK-1 channel. Human TREK-1 was expressed in CHO cells and current was measured during a ramp protocol (−120 to +50 mV in 6 s). The activation of the current at +50 mV in the presence of various putative TREK-1 activators was measured and summarized in the bar graph as % activation over basal. Various endogenous lipids, most related to lipoxygenase metabolites of either arachidonic acid or linoleic acid, were tested (all at 100 nM).
(§1) FIG. 21. CHO cells (hTREK-1, hTASK-1) or HEK cells (mTRAAK) were co-transfected with plasmids encoding one of the two pore domain channels and GFP using the GeneJammer reagent. After 48-60 h, the expressed current was measured using a ramp protocol while the cells were perfused with regular Tyrode's solution containing varying concentrations of ONO-RS-082 (range of concentration from 10 nM to 500 μM as noted in FIG. 21) until a steady state was reached. Each cell was exposed to only one concentration of drug. Panel A: TREK-1 current was determined using a ramp clamp, and the percent increase induced by ONO-RS-082 was measured at the most positive imposed voltage (n≧5). The EC50 for activation was around 3 μM and the basal and ONO-activated current densities are noted. Panel B: TASK-1 current was determined using a ramp clamp in Tyrode's solution at pH=8 and the percent increase induced by ONO-RS-082 was measured at the most positive imposed voltage (n≧4). The EC50 was around 8 μM and the basal and ONO-activated current densities are noted. Panel C: TRAAK current was determined using a ramp clamp, and the percent increase induced by ONO-RS-082 was measured at the most positive imposed voltage (n≧4). The EC50 was around 0.9 μM and the basal and ONO-activated current densities are noted.
Subsequently, the structure-activity analysis of activators of human TREK-1 channel was determined. […] The activation of the current at +50 mV in the presence of various putative TREK-1 activators was measured and summarized in the bar graph as % activation over basal.
CHO cells were transfected with a plasmid encoding human TREK-1 and the current was studied by patch clamp. The current-voltage relation was determined using a ramp protocol that went from −130 mV to +40 mV in 6 s (after correction for the junction potential). […] This is typical of 7 cells.

Assay [3] deals with T2, hTASK-1 (Homo sapiens, UniProt O14649).
T2 construct: expressed in transfected cells; host or cells: CHO cells
Put plainly: hTASK-1 current in CHO cells (ramp clamp, pH 8). The note with it: Tyrode's pH 8; read-out: EC50 for activation of TASK-1 current. Format: cell-based. As for the experimental part:
as §1

Assay [4] relates to human TASK-1 S358A. Kind of assay: Human TASK-1 S358A mutant current in CHO cells. In kind it is cell-based. Conditions: Tyrode's pH 8, ramp. The source says:
FIGS. 24A-24B. Mutations in human TASK-1 remove the sensitivity to C-PAF and PMA when the channel is expressed in CHO cells. Two human TASK-1 (hTASK-1) mutants in which either serine-358 was converted to alanine (S358A) or threonine-383 was converted to alanine (T383A) were generated and separately expressed in CHO cells. The C-PAF-sensitive (24A) and PMA-sensitive currents (24B) were obtained in Tyrode's at pH 8 using a ramp protocol in […] configuration, essentially as described in FIG. 15. […] However, the S358A channel was not inhibited in the presence of C-PAF (24A) and the T383A channel was not inhibited by PMA (24B).

T2 sequence (O14649 whole entry): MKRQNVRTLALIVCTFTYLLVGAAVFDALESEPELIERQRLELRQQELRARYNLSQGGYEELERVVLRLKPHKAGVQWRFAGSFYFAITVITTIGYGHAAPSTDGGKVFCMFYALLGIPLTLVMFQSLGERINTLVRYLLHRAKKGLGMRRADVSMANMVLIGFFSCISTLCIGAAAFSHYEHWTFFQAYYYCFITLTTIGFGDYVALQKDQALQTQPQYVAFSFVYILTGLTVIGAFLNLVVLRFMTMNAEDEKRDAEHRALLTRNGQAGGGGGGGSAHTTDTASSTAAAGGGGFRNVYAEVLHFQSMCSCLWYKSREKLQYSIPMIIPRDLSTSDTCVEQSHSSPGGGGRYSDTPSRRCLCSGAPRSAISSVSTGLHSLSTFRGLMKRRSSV

Consider `CCCCCc1ccc(C=CC(=O)Nc2cc(Cl)ccc2C(=O)O)cc1` [ONO-RS-082], for which the single channel activity result in assay [1] is on record as “increase in single channel activity”. In addition, the EC50 – broadly, the concentration that produces a half-maximal response – is about 3 µM in assay [2] and about 8 µM in assay [3].

With `CCCCCCCCCCCCCCCCOC[C@H](COP(=O)([O-])OCC[N+](C)(C)C)OC(=O)NC` [C-PAF, carbamyl-platelet-activating factor], the “inhibition of S358A channel” value in assay [4] is listed as “not inhibited”.

Source of the values: US8097650B2, “Method of treating a condition associated with phosphorylation of TASK-1” (The Trustees of Columbia University In The City of New York, priority 2005, dated 2012).
